For this assay, the target named is T1, full-length ATR (Homo sapiens, UniProt Q13535).
T1 construct: Assays were carried out at 25° C. in the presence of 5 nM full-length ATR
Briefly: ATR Inhibition Assay (radioactive-phosphate incorporation). As to conditions: Ki(app); 5 nM full-length ATR, 10 μM ATP, 800 μM target peptide, 25° C. Format: biochemical. As for the experimental part:
Compounds were screened for their ability to inhibit ATR kinase using a radioactive-phosphate incorporation assay. Assays were carried out in a mixture of 50 mM Tris/HCl (pH 7.5), 10 mM MgCl2 and 1 mM DTT. Final substrate concentrations were 10 μM [γ-33P]ATP (3mCi 33P ATP/mmol ATP, Perkin Elmer) and 800 μM target peptide (ASELPASQPQPFSAKKK) (SEQ. ID. NO: 1).
Assays were carried out at 25° C. in the presence of 5 nM full-length ATR. An assay stock buffer solution was prepared containing all of the reagents listed above, with the exception of ATP and the test compound of interest. 13.5 μL of the stock solution was placed in a 96 well plate followed by addition of 2 μL of DMSO stock containing serial dilutions of the test compound (typically starting from a final concentration of 15 μM with 3-fold serial dilutions) in duplicate (final DMSO concentration 7%). The plate was pre-incubated for 10 minutes at 25° C. and the reaction initiated by addition of 15 μL [γ-33P]ATP (final concentration 10 μM).
The reaction was stopped after […] by the addition of 30 μL 0.1M phosphoric acid containing 2 mM ATP. A multiscreen phosphocellulose filter 96-well plate (Millipore, Cat no. MAPHN0B50) was pretreated with 100 μL 0.2M phosphoric acid prior to the addition of 45 μL of the stopped assay mixture. The plate was washed with 5×200 μL 0.2M phosphoric acid. After drying, 100 μL Optiphase ‘SuperMix’ liquid scintillation cocktail (Perkin Elmer) was added to the well prior to scintillation counting (1450 Microbeta Liquid Scintillation Counter, Wallac).
After removing mean background values for all of the data points, Ki(app) data were calculated from non-linear regression analysis of the initial rate data using the Prism software package (GraphPad Prism version 3.0cx for Macintosh, GraphPad Software, San Diego Calif., USA).
Below is a chart showing the ATR Inhibition Ki values of compounds of the disclosure.

SMILES strings stand for the structures.

T1 sequence (Q13535 whole entry): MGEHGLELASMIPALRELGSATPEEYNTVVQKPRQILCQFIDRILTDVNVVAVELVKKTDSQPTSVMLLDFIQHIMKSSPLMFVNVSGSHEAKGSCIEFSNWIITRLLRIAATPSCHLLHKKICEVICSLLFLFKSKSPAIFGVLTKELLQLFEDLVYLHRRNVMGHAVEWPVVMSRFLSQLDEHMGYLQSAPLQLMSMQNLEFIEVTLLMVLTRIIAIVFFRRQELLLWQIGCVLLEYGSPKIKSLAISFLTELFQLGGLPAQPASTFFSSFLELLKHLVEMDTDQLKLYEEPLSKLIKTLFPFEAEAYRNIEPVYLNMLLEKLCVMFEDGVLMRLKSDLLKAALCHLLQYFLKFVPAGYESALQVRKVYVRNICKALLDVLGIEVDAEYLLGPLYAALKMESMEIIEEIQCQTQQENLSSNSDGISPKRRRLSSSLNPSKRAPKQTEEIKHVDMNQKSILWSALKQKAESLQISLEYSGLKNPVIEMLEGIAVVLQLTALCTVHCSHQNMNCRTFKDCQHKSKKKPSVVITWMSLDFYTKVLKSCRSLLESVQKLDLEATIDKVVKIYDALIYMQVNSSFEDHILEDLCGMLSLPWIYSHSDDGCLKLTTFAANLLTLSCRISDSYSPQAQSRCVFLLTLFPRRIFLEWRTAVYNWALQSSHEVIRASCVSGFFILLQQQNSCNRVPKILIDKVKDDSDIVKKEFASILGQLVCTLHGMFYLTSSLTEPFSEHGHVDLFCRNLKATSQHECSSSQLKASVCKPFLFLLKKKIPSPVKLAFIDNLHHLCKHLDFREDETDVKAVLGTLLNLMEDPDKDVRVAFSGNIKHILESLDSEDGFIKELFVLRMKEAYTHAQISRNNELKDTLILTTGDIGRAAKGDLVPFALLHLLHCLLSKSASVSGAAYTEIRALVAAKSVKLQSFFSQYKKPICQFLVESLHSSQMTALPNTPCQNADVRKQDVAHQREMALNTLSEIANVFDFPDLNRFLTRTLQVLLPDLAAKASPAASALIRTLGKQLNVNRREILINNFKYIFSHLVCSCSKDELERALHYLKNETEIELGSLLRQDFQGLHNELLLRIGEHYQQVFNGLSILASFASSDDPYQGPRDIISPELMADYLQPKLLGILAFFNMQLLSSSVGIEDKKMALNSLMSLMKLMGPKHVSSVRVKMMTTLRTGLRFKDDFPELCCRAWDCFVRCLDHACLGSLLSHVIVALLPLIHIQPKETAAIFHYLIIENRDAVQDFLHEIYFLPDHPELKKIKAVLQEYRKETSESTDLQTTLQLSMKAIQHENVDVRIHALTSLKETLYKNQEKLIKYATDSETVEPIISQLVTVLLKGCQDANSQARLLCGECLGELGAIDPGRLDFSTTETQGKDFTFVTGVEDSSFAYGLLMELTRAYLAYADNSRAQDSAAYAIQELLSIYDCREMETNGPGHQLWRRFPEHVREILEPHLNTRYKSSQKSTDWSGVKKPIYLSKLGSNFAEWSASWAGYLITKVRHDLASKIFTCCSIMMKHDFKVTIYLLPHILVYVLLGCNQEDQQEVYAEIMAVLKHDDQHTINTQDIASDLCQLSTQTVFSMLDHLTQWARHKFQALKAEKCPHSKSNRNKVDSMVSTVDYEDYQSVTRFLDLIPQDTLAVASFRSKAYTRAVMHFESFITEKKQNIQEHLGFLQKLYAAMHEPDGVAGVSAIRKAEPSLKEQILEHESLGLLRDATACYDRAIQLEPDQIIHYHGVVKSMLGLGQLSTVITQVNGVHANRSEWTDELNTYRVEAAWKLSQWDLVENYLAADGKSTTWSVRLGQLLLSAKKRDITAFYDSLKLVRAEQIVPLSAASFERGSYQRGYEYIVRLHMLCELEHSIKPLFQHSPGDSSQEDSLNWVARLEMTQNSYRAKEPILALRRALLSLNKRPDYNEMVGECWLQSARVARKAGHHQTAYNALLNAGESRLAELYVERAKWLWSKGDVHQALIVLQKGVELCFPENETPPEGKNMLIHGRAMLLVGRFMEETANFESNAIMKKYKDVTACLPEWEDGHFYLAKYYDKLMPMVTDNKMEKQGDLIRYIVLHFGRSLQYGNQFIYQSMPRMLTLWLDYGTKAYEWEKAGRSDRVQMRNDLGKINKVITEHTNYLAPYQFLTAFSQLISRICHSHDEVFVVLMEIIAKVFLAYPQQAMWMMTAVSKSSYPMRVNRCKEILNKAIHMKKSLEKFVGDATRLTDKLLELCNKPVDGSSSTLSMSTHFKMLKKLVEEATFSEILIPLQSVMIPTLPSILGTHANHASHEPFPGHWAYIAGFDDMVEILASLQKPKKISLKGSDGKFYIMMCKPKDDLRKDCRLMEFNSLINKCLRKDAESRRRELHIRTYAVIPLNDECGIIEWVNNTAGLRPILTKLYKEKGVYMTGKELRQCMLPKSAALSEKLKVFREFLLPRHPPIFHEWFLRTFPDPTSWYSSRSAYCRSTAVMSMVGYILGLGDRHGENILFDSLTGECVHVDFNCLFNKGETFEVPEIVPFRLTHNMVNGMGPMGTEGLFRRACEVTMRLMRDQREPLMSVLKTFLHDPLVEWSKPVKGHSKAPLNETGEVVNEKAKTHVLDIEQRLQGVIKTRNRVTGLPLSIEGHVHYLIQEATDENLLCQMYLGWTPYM

Turning to `CC(C)S(=O)(=O)c1ccc(-c2cnc3[nH]cc(N4Cc5ccccc5C4=O)c3n2)cc1` [Compound I-1, 2-(2-(4-(isopropylsulfonyl)phenyl)-5H-pyrrolo[2,3-b]pyrazin-7-yl)isoindolin-1-one], the Ki was at most 50 nM.

`CC(C)S(=O)(=O)c1ccc(-c2cnc3[nH]cc(N4Cc5cc(NC6CNC6)ccc5C4=O)c3n2)cc1` [Compound I-39, 5-(azetidin-3-ylamino)-2-(2-(4-(isopropylsulfonyl)phenyl)-5H-pyrrolo[2,3-b]pyrazin-7-yl)isoindolin-1-one]: the Ki was at most 50 nM.

In the case of `CC(C)S(=O)(=O)c1ccc(-c2cnc3[nH]cc(N4Cc5cccc(Cl)c5C4=O)c3n2)cc1` [Compound I-12, 7-chloro-2-(2-(4-(isopropylsulfonyl)phenyl)-5H-pyrrolo[2,3-b]pyrazin-7-yl)isoindolin-1-one], the Ki was at most 50 nM.

For the molecule `CC(C)S(=O)(=O)c1ccc(-c2cnc3[nH]cc(N4Cc5cccc(N(C)C)c5C4=O)c3n2)cc1` [Compound I-45, 7-(dimethylamino)-2-(2-(4-(isopropylsulfonyl)phenyl)-5H-pyrrolo[2,3-b]pyrazin-7-yl)isoindolin-1-one], the Ki was at most 50 nM.

Take `CC(C)S(=O)(=O)c1ccc(-c2cnc3[nH]cc(N4Cc5cc(N6CC[C@H](N)C6)ccc5C4=O)c3n2)cc1` [Compound I-41, (S)-5-(3-aminopyrrolidin-1-yl)-2-(2-(4-(isopropylsulfonyl)phenyl)-5H-pyrrolo[2,3-b]pyrazin-7-yl)isoindolin-1-one]: the Ki was at most 50 nM.

`CC(C)S(=O)(=O)c1ccc(-c2cnc3[nH]cc(N4Cc5cc(N6CCC(N(C)C)CC6)ccc5C4=O)c3n2)cc1` [Compound I-37, 5-(4-(dimethylamino)piperidin-1-yl)-2-(2-(4-(isopropylsulfonyl)phenyl)-5H-pyrrolo[2,3-b]pyrazin-7-yl)isoindolin-1-one]: the Ki was at most 50 nM.

For the molecule `O=C1c2c(Cl)cccc2CN1c1c[nH]c2ncc(-c3ccc(S(=O)(=O)C4CCCNC4)cc3)nc12` (stereo not drawn) [Compound I-24, 7-chloro-2-(2-(4-(piperidin-3-ylsulfonyl)phenyl)-5H-pyrrolo[2,3-b]pyrazin-7-yl)isoindolin-1-one], the Ki was at most 50 nM.

Regarding `CC(C)S(=O)(=O)c1ccc(-c2cnc3[nH]cc(N4Cc5cc(N6CCNCC6)ccc5C4=O)c3n2)cc1` [Compound I-28, 2-(2-(4-(isopropylsulfonyl)phenyl)-5H-pyrrolo[2,3-b]pyrazin-7-yl)-5-(piperazin-1-yl)isoindolin-1-one], the Ki is at most 50 nM.

With `CC(C)S(=O)(=O)c1ccc(-c2cnc3[nH]cc(N4Cc5cc(NCC6CCCNC6)ccc5C4=O)c3n2)cc1` (stereo not drawn) [Compound I-40, 2-(2-(4-(isopropylsulfonyl)phenyl)-5H-pyrrolo[2,3-b]pyrazin-7-yl)-5-((piperidin-3-ylmethyl)amino)isoindolin-1-one], the Ki was at most 50 nM.

Regarding `CC(C)S(=O)(=O)c1ccc(-c2cnc3[nH]cc(N4Cc5cc(N6CC[C@@H](N)C6)ccc5C4=O)c3n2)cc1` [Compound I-42, (R)-5-(3-aminopyrrolidin-1-yl)-2-(2-(4-(isopropylsulfonyl)phenyl)-5H-pyrrolo[2,3-b]pyrazin-7-yl)isoindolin-1-one], the Ki is at most 50 nM.

For `CC(C)S(=O)(=O)c1ccc(-c2cnc3[nH]cc(N4Cc5cc(N6CC[C@@H](CN)C6)ccc5C4=O)c3n2)cc1` [Compound I-35, (S)-5-(3-(aminomethyl)pyrrolidin-1-yl)-2-(2-(4-(isopropylsulfonyl)phenyl)-5H-pyrrolo[2,3-b]pyrazin-7-yl)isoindolin-1-one], the Ki was at most 50 nM.

For `CNc1cccc2c1C(=O)N(c1c[nH]c3ncc(-c4ccc(S(=O)(=O)C(C)C)cc4)nc13)C2` [Compound I-44, 2-(2-(4-(isopropylsulfonyl)phenyl)-5H-pyrrolo[2,3-b]pyrazin-7-yl)-7-(methylamino)isoindolin-1-one], the Ki is 50 to 100 nM.

With `CC(C)S(=O)(=O)c1ccc(-c2cnc3[nH]cc(N4CCc5ccccc5C4=O)c3n2)cc1` [Compound I-2, 2-(2-(4-(isopropylsulfonyl)phenyl)-5H-pyrrolo[2,3-b]pyrazin-7-yl)-3,4-dihydroisoquinolin-1(2H)-one], the Ki is 100 to 250 nM.

In the case of `CC(C)S(=O)(=O)c1ccc(-c2cnc3[nH]cc(N4Cc5cc(N6CC[C@H](CN)C6)ccc5C4=O)c3n2)cc1` [Compound I-29, (R)-5-(3-(aminomethyl)pyrrolidin-1-yl)-2-(2-(4-(isopropylsulfonyl)phenyl)-5H-pyrrolo[2,3-b]pyrazin-7-yl)isoindolin-1-one], the Ki was at most 50 nM.

Regarding `CC(C)S(=O)(=O)c1ccc(-c2cnc3[nH]cc(N4Cc5cccc(CN)c5C4=O)c3n2)cc1` [Compound I-19, 7-(aminomethyl)-2-(2-(4-(isopropylsulfonyl)phenyl)-5H-pyrrolo[2,3-b]pyrazin-7-yl)isoindolin-1-one], the Ki was at most 50 nM.

Consider `CC(C)S(=O)(=O)c1ccc(-c2cnc3[nH]cc(N4Cc5cc(N(C)C6CCNCC6)ccc5C4=O)c3n2)cc1` [Compound I-31, 2-(2-(4-(isopropylsulfonyl)phenyl)-5H-pyrrolo[2,3-b]pyrazin-7-yl)-5-(methyl(piperidin-4-yl)amino)isoindolin-1-one], for which the Ki is at most 50 nM.

Take `CC(C)S(=O)(=O)c1ccc(-c2cnc3[nH]cc(N4Cc5cc(-c6ccn[nH]6)ccc5C4=O)c3n2)cc1` [Compound I-43, 2-(2-(4-(isopropylsulfonyl)phenyl)-5H-pyrrolo[2,3-b]pyrazin-7-yl)-5-(1H-pyrazol-5-yl)isoindolin-1-one]: the Ki was at most 50 nM.

Turning to `N#CC1(c2cc(-c3cnc4[nH]cc(N5Cc6ccccc6C5=O)c4n3)ccn2)CN2CCC1CC2` (stereo not drawn) [Compound I-7, 3-(4-(7-(1-oxoisoindolin-2-yl)-5H-pyrrolo[2,3-b]pyrazin-2-yl)pyridin-2-yl)quinuclidine-3-carbonitrile], the Ki was at most 50 nM.

As to `CC(C)S(=O)(=O)c1ccc(-c2cnc3[nH]cc(N4Cc5cc(N6CCCNCC6)ccc5C4=O)c3n2)cc1` [Compound I-38, 5-(1,4-diazepan-1-yl)-2-(2-(4-(isopropylsulfonyl)phenyl)-5H-pyrrolo[2,3-b]pyrazin-7-yl)isoindolin-1-one], the Ki is at most 50 nM.

Take `CC(C)(C#N)c1cc(-c2cnc3[nH]cc(N4Cc5ccccc5C4=O)c3n2)ccn1` [Compound I-6, 2-methyl-2-(4-(7-(1-oxoisoindohn-2-yl)-5H-pyrrolo[2,3-b]pyrazin-2-yl)pyridin-2-yl)propanenitrile]: the Ki is at most 50 nM.

On to `CC(C)S(=O)(=O)c1ccc(-c2cnc3[nH]cc(N4Cc5cc(N6CCCC(N)C6)ccc5C4=O)c3n2)cc1` (stereo not drawn) [Compound I-30, 5-(3-aminopiperidin-1-yl)-2-(2-(4-(isopropylsulfonyl)phenyl)-5H-pyrrolo[2,3-b]pyrazin-7-yl)isoindolin-1-one], for which the Ki is at most 50 nM.

Regarding `CC(C)S(=O)(=O)c1ccc(-c2cnc3[nH]cc(N4Cc5cc(N(C)CCCN(C)C)ccc5C4=O)c3n2)cc1` [Compound I-36, 5-((3-(dimethylamino)propyl)(methyl)amino)-2-(2-(4-(isopropylsulfonyl)phenyl)-5H-pyrrolo[2,3-b]pyrazin-7-yl)isoindolin-1-one], the Ki was at most 50 nM.

Regarding `O=C1c2ccccc2CN1c1c[nH]c2ncc(-c3ccc(S(=O)(=O)C4COC4)cc3)nc12` [Compound I-5, 2-(2-(4-(oxetan-3-ylsulfonyl)phenyl)-5H-pyrrolo[2,3-b]pyrazin-7-yl)isoindolin-1-one], the Ki is at most 50 nM.

On to `CC(C)S(=O)(=O)c1ccc(-c2cnc3[nH]cc(N4Cc5cc(NCCN)ccc5C4=O)c3n2)cc1` [Compound I-34, 5-((2-aminoethyl)amino)-2-(2-(4-(isopropylsulfonyl)phenyl)-5H-pyrrolo[2,3-b]pyrazin-7-yl)isoindolin-1-one], for which the Ki is at most 50 nM.

Regarding `CC(C)S(=O)(=O)c1ccc(-c2cnc3[nH]cc(N4Cc5c(CN)cccc5C4=O)c3n2)cc1` [Compound I-17, 4-(aminomethyl)-2-(2-(4-(isopropylsulfonyl)phenyl)-5H-pyrrolo[2,3-b]pyrazin-7-yl)isoindolin-1-one], the Ki was at most 50 nM.

With `CC(C)S(=O)(=O)c1ccc(-c2cnc3[nH]cc(N4Cc5ccc(N6CC[C@@H](N)C6)cc5C4=O)c3n2)cc1` [Compound I-25, (R)-6-(3-aminopyrrolidin-1-yl)-2-(2-(4-(isopropylsulfonyl)phenyl)-5H-pyrrolo[2,3-b]pyrazin-7-yl)isoindolin-1-one], the Ki is at most 50 nM.

As for `CC1c2ccccc2C(=O)N1c1c[nH]c2ncc(-c3ccc(S(=O)(=O)C(C)C)cc3)nc12` (stereo not drawn) [Compound I-3, 2-(2-(4-(isopropylsulfonyl)phenyl)-5H-pyrrolo[2,3-b]pyrazin-7-yl)-3-methylisoindolin-1-one], the Ki is at most 50 nM.
